One experiment relates to Caspase 3. Put plainly: Caspase 3 detection assay in SJSA1 cells. It is filed as cell-based. The conditions noted are these: SJSA1, 48 h, Caspase 3 activation over DMSO-treated cells.
The next experiment deals with SJSA-1 cells. Put plainly: Cell lysis by peptidomimetic macrocycles (LDH release). The conditions noted are these: SJSA-1, 1 h. It is filed as cell-based. The method, then:
SJSA-1 cells were plated out one day in advance in clear flat-bottom plates (Costar, catalog number 353072) at 7500 cells/well with 100 ul/well of growth media, leaving row H columns 10-12 empty for media alone. On the day of the assay, media was exchanged with RPMI 1% FBS media, 90 uL of media per well.
10 mM stock solutions of the peptidomimetic macrocycles were prepared in 100% DMSO. Peptidomimetic macrocycles were then diluted serially in 100% DMSO, and then further diluted 20-fold in sterile water to prepare working stock solutions in 5% DMSO/water of each peptidomimetic macrocycle at concentrations ranging from 500 μM to 62.5 μM.
10 μL of each compound was added to the 90 uL of SJSA-1 cells to yield final concentrations of 50 μM to 6.25 μM in 0.5% DMSO-containing media. The negative control (non-lytic) sample was 0.5% DMSO alone and positive control (lytic) samples include 10 μM Melittin and 1% Triton X-100.
Cell plates were incubated for 1 hour at 37° C. After the 1 hour incubation, the morphology of the cells is examined by microscope and then the plates were centrifuged at 1200 rpm for 5 minutes at room temperature. 40 μL of supernatant for each peptidomimetic macrocycle and control sample is transferred to clear assay plates. LDH release is measured using the LDH cytotoxicity assay kit from Caymen, catalog #1000882.

With `CC(=O)N[C@@H](CC(C)C)C(=O)N[C@H](C(=O)N[C@@H](Cc1ccccc1)C(=O)N[C@]1(C)CCCCCCC=CCCC[C@@](C)(C(=O)N[C@@H](CO)C(=O)NC(C)(C)C(=O)N[C@@H](C)C(=O)N[C@@H](C)C(N)=O)NC(=O)[C@H](CC(C)C)NC(=O)[C@H](CCC(N)=O)NC(=O)[C@H](C)NC(=O)[C@H](Cc2c[nH]c3ccccc23)NC(=O)[C@H](Cc2ccc(O)cc2)NC(=O)[C@H](C)NC1=O)[C@@H](C)O` (single isomer, unassigned) [compound 26], in the experiment on Caspase 3, the “caspase 0.3 μM” value stood at 1, the “caspase 3 μM” value is on record as 1, the “caspase 10 μM” value came out at 3 and the “caspase 30 μM” value is given as 14. In the experiment on SJSA-1 cells, the “6.25 μM % Lysed cells (1 h LDH)” value was determined as 2%, the “25 μM % Lysed cells (1 h LDH)” value is −1% and the “50 μM % Lysed cells (1 h LDH)” value is on record as 0%.

Take `CC[C@H](C)[C@H](NC(=O)[C@H](C)NC(=O)[C@H](C)NC(=O)[C@]1(C)CCCC=CCCCCCC[C@@](C)(NC(=O)[C@H](Cc2ccccc2)NC(=O)[C@@H](NC(=O)[C@H](CC(C)C)NC(C)=O)[C@@H](C)O)C(=O)N[C@@H](C)C(=O)N[C@@H](Cc2ccc(O)cc2)C(=O)N[C@@H](Cc2c[nH]c3ccccc23)C(=O)N[C@@H](C)C(=O)N[C@@H](C)C(=O)N[C@@H](CC(C)C)C(=O)N1)C(=O)N[C@@H](C(N)=O)C(C)C` (single isomer, unassigned) [compound 77]: in the experiment on Caspase 3, the “caspase 0.3 μM” value amounted to 1, the “caspase 3 μM” value amounted to 2, the “caspase 10 μM” value is on record as 19 and the “caspase 30 μM” value turned out to be 23. For the same compound, in the experiment on SJSA-1 cells, the “6.25 μM % Lysed cells (1 h LDH)” value is given as −2%, the “25 μM % Lysed cells (1 h LDH)” value is 1% and the “50 μM % Lysed cells (1 h LDH)” value is −1%.

`CCCC[C@H](NC(=O)[C@H](C)NC(=O)[C@H](C)NC(=O)[C@]1(C)CCCC=CCCCCCC[C@@](C)(NC(=O)[C@H](Cc2ccccc2)NC(=O)[C@@H](NC(=O)[C@H](CC(C)C)NC(C)=O)[C@@H](C)O)C(=O)N[C@@H](C)C(=O)N[C@@H](Cc2ccc(O)cc2)C(=O)N[C@@H](Cc2c[nH]c3ccccc23)C(=O)N[C@@H](C)C(=O)N[C@@H](C)C(=O)N[C@@H](CC(C)C)C(=O)N1)C(=O)N[C@@H](C(N)=O)C(C)C` (single isomer, unassigned) [compound 80]: in the experiment with Caspase 3, the “caspase 0.3 μM” value amounted to 1, the “caspase 3 μM” value worked out at 2, the “caspase 10 μM” value worked out at 13 and the “caspase 30 μM” value was 20. Further, in the experiment on SJSA-1 cells, the “6.25 μM % Lysed cells (1 h LDH)” value was 0%, the “25 μM % Lysed cells (1 h LDH)” value was determined as 1% and the “50 μM % Lysed cells (1 h LDH)” value amounted to 5%.

On to `CC(=O)N[C@@H](CC(C)C)C(=O)N[C@H](C(=O)N[C@@H](Cc1ccccc1)C(=O)N[C@]1(C)CCCCCCC=CCCC[C@@](C)(C(=O)N[C@@H](CO)C(=O)N[C@H](C(=O)N[C@@H](C)C(N)=O)C(C)C)NC(=O)[C@H](CC(C)C)NC(=O)[C@H](CCC(N)=O)NC(=O)[C@H](C)NC(=O)[C@H](Cc2c[nH]c3ccccc23)NC(=O)[C@H](Cc2ccc(O)cc2)NC(=O)[C@H](C(C)C)NC1=O)[C@@H](C)O` (single isomer, unassigned) [compound 139], for which, in the experiment on Caspase 3, the “caspase 0.3 μM” value is listed as 1, the “caspase 3 μM” value is given as 2, the “caspase 10 μM” value was found to be 9 and the “caspase 30 μM” value was 18. In addition, in the experiment on SJSA-1 cells, the “6.25 μM % Lysed cells (1 h LDH)” value is −2%, the “25 μM % Lysed cells (1 h LDH)” value was −1% and the “50 μM % Lysed cells (1 h LDH)” value is reported as −1%.

With `CC(=O)N[C@@H](CC(C)C)C(=O)N[C@H](C(=O)N[C@@H](Cc1ccccc1)C(=O)N[C@]1(C)CCCCCCC=CCCC[C@@](C)(C(=O)N[C@@H](CO)C(=O)N[C@H](C(=O)N[C@@H](CO)C(N)=O)C(C)C)NC(=O)[C@H](CC(C)C)NC(=O)[C@H](CCC(N)=O)NC(=O)[C@H](C)NC(=O)[C@H](Cc2c[nH]c3ccccc23)NC(=O)[C@H](Cc2ccc(O)cc2)NC(=O)[C@H](C(C)C)NC1=O)[C@@H](C)O` (single isomer, unassigned) [compound 142], in the experiment on Caspase 3, the “caspase 0.3 μM” value is recorded as 1, the “caspase 3 μM” value amounted to 2, the “caspase 10 μM” value came out at 15 and the “caspase 30 μM” value is given as 20. In addition, in the experiment on SJSA-1 cells, the “6.25 μM % Lysed cells (1 h LDH)” value is on record as 1%, the “25 μM % Lysed cells (1 h LDH)” value stood at 1% and the “50 μM % Lysed cells (1 h LDH)” value stood at 3%.

In the case of `CC(=O)N[C@@H](CC(C)C)C(=O)N[C@H](C(=O)N[C@@H](Cc1ccccc1)C(=O)N[C@]1(C)CCCCCCC=CCCC[C@@](C)(C(=O)N[C@@H](CO)C(=O)N[C@@H](C)C(=O)N[C@@H](CO)C(N)=O)NC(=O)[C@H](CC(C)C)NC(=O)[C@H](CCC(N)=O)NC(=O)[C@H](C)NC(=O)[C@H](Cc2c[nH]c3ccccc23)NC(=O)[C@H](Cc2ccc(O)cc2)NC(=O)[C@H](C(C)C)NC1=O)[C@@H](C)O` (single isomer, unassigned) [compound 144], in the experiment on Caspase 3, the “caspase 0.3 μM” value was determined as 1, the “caspase 3 μM” value was 4, the “caspase 10 μM” value worked out at 10 and the “caspase 30 μM” value turned out to be 16. Besides, in the experiment on SJSA-1 cells, the “6.25 μM % Lysed cells (1 h LDH)” value stood at 1%, the “25 μM % Lysed cells (1 h LDH)” value is reported as −1% and the “50 μM % Lysed cells (1 h LDH)” value is 2%.

Regarding `CC(=O)N[C@@H](CC(C)C)C(=O)N[C@H](C(=O)N[C@@H](Cc1ccccc1)C(=O)N[C@]1(C)CCCCCCC=CCCC[C@@](C)(C(=O)N[C@@H](CO)C(=O)N[C@@H](C)C(=O)N[C@@H](C)C(N)=O)NC(=O)[C@H](C2CCCC2)NC(=O)[C@H](CCC(N)=O)NC(=O)[C@H](C)NC(=O)[C@H](Cc2c[nH]c3ccccc23)NC(=O)[C@H](Cc2ccc(O)cc2)NC(=O)[C@H](CCC(=O)O)NC1=O)[C@@H](C)O` (single isomer, unassigned) [compound 149], in the experiment on Caspase 3, the “caspase 0.3 μM” value was 1, the “caspase 3 μM” value is given as 2, the “caspase 10 μM” value was determined as 4 and the “caspase 30 μM” value came to 10. Also, in the experiment on SJSA-1 cells, the “6.25 μM % Lysed cells (1 h LDH)” value stood at 6%, the “25 μM % Lysed cells (1 h LDH)” value stood at 7% and the “50 μM % Lysed cells (1 h LDH)” value amounted to 21%.

With `CC(=O)N[C@@H](CC(C)C)C(=O)N[C@H](C(=O)N[C@@H](Cc1ccccc1)C(=O)N[C@]1(C)CCCCCCC=CCCC[C@@](C)(C(=O)N[C@@H](CO)C(=O)N[C@@H](C)C(=O)N[C@@H](C)C(N)=O)NC(=O)[C@H](CC2CCC2)NC(=O)[C@H](CCC(N)=O)NC(=O)[C@H](C)NC(=O)[C@H](Cc2c[nH]c3ccccc23)NC(=O)[C@H](Cc2ccc(O)cc2)NC(=O)[C@H](CCC(=O)O)NC1=O)[C@@H](C)O` (single isomer, unassigned) [compound 153], in the experiment with Caspase 3, the “caspase 0.3 μM” value is 2, the “caspase 3 μM” value is given as 10, the “caspase 10 μM” value is listed as 15 and the “caspase 30 μM” value is on record as 20. For the same compound, in the experiment with SJSA-1 cells, the “6.25 μM % Lysed cells (1 h LDH)” value came to 4%, the “25 μM % Lysed cells (1 h LDH)” value was found to be 2% and the “50 μM % Lysed cells (1 h LDH)” value is 3%.

In the case of `CC[C@H](C)[C@H](NC(=O)[C@H](C)NC(=O)[C@H](C)NC(=O)[C@]1(C)CCCC=CCCCCCC[C@@](C)(NC(=O)[C@H](Cc2ccccc2)NC(=O)[C@@H](NC(=O)[C@H](CC(C)C)NC(C)=O)[C@@H](C)O)C(=O)N[C@@H](C)C(=O)N[C@@H](Cc2ccc(O)cc2)C(=O)N[C@@H](Cc2c[nH]c3ccccc23)C(=O)N[C@@H](C)C(=O)N[C@@H](C)C(=O)N[C@@H](CC(C)C)C(=O)N1)C(=O)N[C@H](C)C(N)=O` (single isomer, unassigned) [compound 203], in the experiment with Caspase 3, the “caspase 0.3 μM” value was found to be 1, the “caspase 3 μM” value is 3, the “caspase 10 μM” value turned out to be 12 and the “caspase 30 μM” value worked out at 10. Further, in the experiment with SJSA-1 cells, the “6.25 μM % Lysed cells (1 h LDH)” value is recorded as 0%, the “25 μM % Lysed cells (1 h LDH)” value stood at 2% and the “50 μM % Lysed cells (1 h LDH)” value was 2%.

`CC(C)CC[C@@H]1NC(=O)[C@H](CCC(N)=O)NC(=O)[C@H](C)NC(=O)[C@H](Cc2c[nH]c3ccccc23)NC(=O)[C@H](Cc2ccc(O)cc2)NC(=O)[C@H](CCC(=O)O)NC(=O)[C@](C)(NC(=O)[C@H](Cc2ccccc2)NC(=O)[C@@H](NC(=O)[C@H](CC(C)C)NC(=O)C(C)(C)C)[C@@H](C)O)CCCCCCC=CCCC[C@@](C)(C(=O)N[C@@H](CO)C(=O)N[C@@H](C)C(=O)N[C@@H](C)C(N)=O)NC1=O` [compound 284]: in the experiment on SJSA-1 cells, the “6.25 μM % Lysed cells (1 h LDH)” value is on record as 5%, the “25 μM % Lysed cells (1 h LDH)” value is 5% and the “50 μM % Lysed cells (1 h LDH)” value is reported as 6%.

`CCCC[C@H](NC(=O)[C@H](C)NC(=O)[C@H](C)NC(=O)[C@]1(C)CCCC=CCCCCCC[C@@](C)(NC(=O)[C@H](Cc2ccccc2)NC(=O)[C@@H](NC(=O)[C@H](CC(C)C)NC(C)=O)[C@@H](C)O)C(=O)N[C@@H](C)C(=O)N[C@@H](Cc2ccc(O)cc2)C(=O)N[C@@H](Cc2c[nH]c3ccccc23)C(=O)N[C@@H](Cc2cc(=O)oc3cc(OC)c(OC)cc23)C(=O)N[C@@H](CCC(N)=O)C(=O)N[C@@H](CC(C)C)C(=O)N1)C(=O)N[C@@H](C)C(N)=O` [compound 415]: in the experiment with SJSA-1 cells, the “6.25 μM % Lysed cells (1 h LDH)” value is recorded as 4%, the “25 μM % Lysed cells (1 h LDH)” value is given as 2% and the “50 μM % Lysed cells (1 h LDH)” value is 2%.

The values above are taken from patent US20200369728A1, “PEPTIDOMIMETIC MACROCYCLES AND USES THEREOF” (Aileron Therapeutics, Inc., priority 2015, published 2020).
